The source of these data is patent US7977387B2, “Aminobenzophenone compounds” (Leo Pharma A/S, priority 2003, dated 2011).

In one test the test system is IL-1β. The experiment in a line: Inhibition of IL-1β secretion in LPS stimulated peripheral blood mononuclear cells. The note with it: PBMC; LPS stimulated human peripheral blood mononuclear cells, 18 hours, ELISA; read-out: The median inhibition concentration (IC50, nM) of IL-1β. It counts as cell-based. As for the experimental part: (§1) To study the effect of compounds of the present invention in vitro, the inhibition of IL-1β and TNF-α secretion was determined using the following procedure:
(§2) Cytokine production was measured in the media from lipopolysaccharide (LPS) stimulated peripheral blood mononuclear cells. The mononuclear cells were isolated from human peripheral blood by Lymphoprep® (Nycomed, Norway) fractionation and suspended in RPMI 1640 (growth medium) with foetal calf serum (FCS, 2%), at a concentration of 5×10^5 cells/ml. The cells were incubated in 24-well tissue culture plates in 1 ml aliquots. Test compounds were dissolved in dimethylsulfoxide (DMSO, 10 mM) and were diluted with the medium. Compounds were added to the cells for 30 minutes, then LPS ([…] final concentration) was added. The plates were incubated for 18 hours, and the concentration of IL-β and TNF-α in the medium was determined by enzyme-linked immunosorbent assays. The median inhibitory concentrations (IC50) of the compounds were calculated.
On the technique in general: An ELISA detects its analyte on a solid surface through an enzyme-linked reagent.

The next test relates to TNF-α. In words: Inhibition of TNF-α secretion in LPS stimulated peripheral blood mononuclear cells. It is filed as cell-based. Conditions: PBMC; LPS stimulated human peripheral blood mononuclear cells, 18 hours, ELISA; read-out: The median inhibition concentration (IC50, nM) of TNF-α. As for the experimental part: as §1, §2

`COCCNC(=O)c1ccc(C)c(C(=O)c2ccc(Nc3ccc(F)cc3C)cc2Cl)c1` [Compound 106, 3-[2-Chloro-4-(4-fluoro-2-methyl-phenylamino)benzoyl]-N-(2-methoxyethyl)-4-methylbenzamide]: the IC50 with IL-1β came to 2 nM; in the test with TNF-α it was 1 nM.

Take `Cc1cc(F)ccc1Nc1ccc(C(=O)c2cc(C(=O)NCCCN3CCOCC3)ccc2C)c(Cl)c1` [Compound 107, 3-[2-Chloro-4-(4-fluoro-2-methylphenylamino)benzoyl]-4-methyl-N-(3-morpholin-4-yl-propyl)benzamide]: the IC50 in the test with IL-1β and with TNF-α was 3.2 nM each time.

Take `Cc1cc(F)ccc1Nc1ccc(C(=O)c2cc(C(=O)NCc3ccncc3)ccc2C)c(Cl)c1` [Compound 109]: the results for the IC50 in the test on IL-1β and with TNF-α were 4 nM and 3.2 nM, respectively.

On to `Cc1ccc(C(=O)NCCCO)cc1C(=O)c1ccc(Nc2ccccc2N)cc1Cl` [Compound 118, 3-[4-(2-Aminophenylamino)-2-chlorobenzoyl]-N-(3-hydroxypropyl)-4-methylbenzamide], for which the IC50 was found to be 2.2 nM in the test on IL-1β and 2 nM with TNF-α.

`Cc1cc(F)ccc1Nc1ccc(C(=O)c2cc(C(=O)NCCO)ccc2C)c(Cl)c1` [Compound 119, 3-[2-Chloro-4-(4-fluoro-2-methylphenylamino)benzoyl]-N-(2-hydroxyethyl)-4-methylbenzamide]: the IC50 in the test on IL-1β amounted to 1.3 nM; with TNF-α, 0.4 nM.

For `CNC(=O)c1ccc(C)c(C(=O)c2ccc(Nc3ccc(Cl)cc3F)cc2Cl)c1` [Compound 121, 3-[2-Chloro-4-(4-chloro-2-fluoro-phenylamino)-benzoyl]-4,N-dimethyl-benzamide], the IC50 in the test with IL-1β amounted to 2.8 nM; in the test with TNF-α, 0.6 nM.

On to `CCOC(=O)CNC(=O)CNC(=O)c1ccc(C)c(C(=O)c2ccc(Nc3ccc(Cl)cc3F)cc2Cl)c1` [Compound 122, (2-{3-[2-Chloro-4-(4-chloro-2-fluoro-phenylamino)-benzoyl]-4-methyl-benzoylamino}-acetylamino)-acetic acid ethyl ester], for which the IC50 worked out at 0.5 nM with IL-1β and 0.2 nM with TNF-α.

Take `Cc1ccc(C(=O)N[C@H]2CC[C@@H](O)CC2)cc1C(=O)c1ccc(Nc2ccc(Cl)cc2F)cc1Cl` [Compound 135, 3-[2-Chloro-4-(4-chloro-2-fluoro-phenylamino)-benzoyl]-N-cis-(4-hydroxy-cyclohexyl)-4-methyl-benzamide]: the results for the IC50 in the test with IL-1β and with TNF-α were 4 nM and 2 nM, respectively.

On to `Cc1ccc(C(=O)N[C@H]2CC[C@H](O)CC2)cc1C(=O)c1ccc(Nc2ccc(Cl)cc2F)cc1Cl` [Compound 136, 3-[2-Chloro-4-(4-chloro-2-fluoro-phenylamino)-benzoyl]-N-trans-(4-hydroxy-cyclohexyl)-4-methyl-benzamide], for which the figures for the IC50 in the test on IL-1β and in the test with TNF-α were 4 nM and 2 nM, respectively.

Regarding `COc1ccc(C(=O)NCC(O)CO)cc1C(=O)c1ccc(Nc2ccc(F)cc2F)cc1Cl` (stereo not shown) [Compound 143, 3-[2-Chloro-4-(2,4-difluoro-phenylamino)-benzoyl]-N-(2,3-dihydroxy-propyl)-4-methoxy-benzamide], the IC50 with IL-1β turned out to be 2.5 nM; in the test on TNF-α it was 1.6 nM.

`COc1ccc(C(=O)NCC(N)=O)cc1C(=O)c1ccc(Nc2ccc(F)cc2F)cc1Cl` [Compound 144, N-Carbamoylmethyl-3-[2-chloro-4-(2,4-difluoro-phenylamino)-benzoyl]-4-methoxy-benzamide]: the figures for the IC50 in the test on IL-1β and with TNF-α were 1 nM and 0.6 nM, respectively.

In the case of `Cc1ccc(C(=O)NCC(F)(F)C(F)(F)F)cc1C(=O)c1ccc(Nc2ccc(F)cc2F)cc1Cl` [Compound 154, 3-[2-Chloro-4-(2,4-difluoro-phenylamino)-benzoyl]-4-methyl-N-(2,2,3,3,3-pentafluoro-propyl)-benzamide], the IC50 in the test on IL-1β was 3.2 nM; with TNF-α, 2.5 nM.

Regarding `CCOC(=O)CNC(=O)c1ccc(C)c(C(=O)c2ccc(Nc3ccc(F)cc3F)cc2Cl)c1` [Compound 158, {3-[2-Chloro-4-(2,4-difluoro-phenylamino)-benzoyl]-4-methyl-benzoylamino}-acetic acid ethyl ester], the IC50 was found to be 0.6 nM with IL-1β and 0.2 nM with TNF-α.

With `Cc1ccc(C(=O)NCCCCO)cc1C(=O)c1ccc(Nc2ccc(F)cc2F)cc1Cl` [Compound 159, 3-[2-Chloro-4-(2,4-difluoro-phenylamino)-benzoyl]-N-(4-hydroxy-butyl)-4-methyl-benzamide], the results for the IC50 in the test with IL-1β and in the test on TNF-α were 7.9 nM and 1.3 nM, respectively.

In the case of `COC(=O)CCC(=O)CNC(=O)c1ccc(C)c(C(=O)c2ccc(Nc3ccc(F)cc3F)cc2Cl)c1` [Compound 167, 5-{3-[2-chloro-4-(2,4-difluoro-phenylamino)-benzoyl]-4-methyl-benzoylamino}-4-oxo-pentanoic acid methyl ester], the IC50 in the test on IL-1β came to 1.7 nM; in the test on TNF-α, 2 nM.

As for `Cc1ccc(C(=O)NCC(=O)NCCC(N)=O)cc1C(=O)c1ccc(Nc2ccc(F)cc2F)cc1Cl` [Compound 168, N-[(2-Carbamoyl-ethylcarbamoyl)-methyl]-3-[2-chloro-4-(2,4-difluoro-phenylamino)-benzoyl]-4-methyl-benzamide], the IC50 with IL-1β and in the test with TNF-α was 2.5 nM throughout.

`CCOC(=O)CNC(=O)CNC(=O)c1ccc(C)c(C(=O)c2ccc(Nc3ccc(F)cc3F)cc2Cl)c1` [Compound 169, (2-{3-[2-Chloro-4-(2,4-difluoro-phenylamino)-benzoyl]-4-methyl-benzoylamino}-acetylamino)-acetic acid ethyl ester]: the IC50 in the test on IL-1β and with TNF-α was 0.4 nM in each case.

Regarding `COc1ccc(C(=O)NC(C)(CO)CO)cc1C(=O)c1ccc(Nc2c(F)cccc2F)cc1Cl` [Compound 180, 3-[2-Chloro-4-(2,6-difluoro-phenylamino)-benzoyl]-N-(2-hydroxy-1-hydroxymethyl-1-methyl-ethyl)-4-methoxy-benzamide], the results for the IC50 in the test on IL-1β and in the test on TNF-α were 2.5 nM and 3.2 nM, respectively.

With `CCOC(=O)CNC(=O)c1ccc(OC)c(C(=O)c2ccc(Nc3c(F)cccc3F)cc2Cl)c1` [Compound 182], the results for the IC50 in the test with IL-1β and with TNF-α were 8.9 nM and 2.2 nM, respectively.

`CCOC(=O)CNC(=O)CNC(=O)c1ccc(OC)c(C(=O)c2ccc(Nc3c(F)cccc3F)cc2Cl)c1` [Compound 183, (2-{3-[2-Chloro-4-(2,6-difluoro-phenylamino)-benzoyl]-4-methoxy-benzoylamino}-acetylamino)-acetic acid ethyl ester]: the results for the IC50 in the test with IL-1β and in the test on TNF-α were 2 nM and 0.7 nM, respectively.

With `Cc1ccc(NC(=O)CCc2ccco2)cc1C(=O)c1ccc(Nc2ccc(F)cc2F)cc1Cl` [Compound 246, N-{3-[2-Chloro-4-(2,4-difluoro-phenylamino)-benzoyl]-4-methyl-phenyl}-3-furan-2-yl-propionamide], the IC50 in the test on TNF-α was determined as 3.2 nM.

`Cc1ccc(NC(=O)Nc2cccc(C(F)(F)F)c2)cc1C(=O)c1ccc(Nc2ccc(F)cc2F)cc1Cl` [Compound 263, 1-{3-[2-Chloro-4-(2,4-difluoro-phenylamino)-benzoyl]-4-methyl-phenyl}-3-(3-trifluoromethyl-phenyl)-urea]: in the test on TNF-α, the IC50 is 1.6 nM.

For `O=C(c1cc(OCCCO)ccc1F)c1ccc(Nc2ccc(F)cc2F)cc1Cl` [Compound 314, [2-Chloro-4-(2,4-difluoro-phenylamino)-phenyl]-[2-fluoro-5-(3-hydroxy-propoxy)-phenyl]-methanone], the IC50 in the test on TNF-α amounted to 2.8 nM.
